Source: patent US5883098A, “Piperazine derivatives” (Fujisawa Pharmaceutical Co., Ltd., priority 1993, dated 1999)
Structures can show the parent of a compound that is named as a salt.

These compounds were tested against T1, guinea pig lung membranes (Cavia porcellus, UniProt P30547) (assay: ^3 H-Substance P binding to guinea pig lung membranes). Conditions: at the concentration of 1 μg/ml; read-out: inhibition rate of ^3 H-Substance P binding to guinea pig lung membranes.
T1 construct: The trachea and lung were removed and homogenized in ice-cold buffer; from tissue; host or cells: guinea pig (male Hartley strain) trachea and lung, crude membrane fraction
T1 sequence (P30547 whole entry): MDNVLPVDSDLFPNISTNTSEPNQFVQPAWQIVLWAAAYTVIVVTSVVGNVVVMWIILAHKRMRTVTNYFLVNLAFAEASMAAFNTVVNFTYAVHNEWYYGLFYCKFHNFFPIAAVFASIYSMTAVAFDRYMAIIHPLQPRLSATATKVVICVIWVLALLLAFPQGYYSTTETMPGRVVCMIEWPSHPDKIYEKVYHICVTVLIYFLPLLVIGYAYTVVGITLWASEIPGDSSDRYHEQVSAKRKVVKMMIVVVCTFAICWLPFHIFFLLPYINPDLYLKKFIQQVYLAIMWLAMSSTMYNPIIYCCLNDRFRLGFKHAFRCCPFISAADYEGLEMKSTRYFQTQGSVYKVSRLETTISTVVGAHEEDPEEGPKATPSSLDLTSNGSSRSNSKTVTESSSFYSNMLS
Experimental: ^3 H-Substance P Binding to Guinea Pig Lung Membranes Test Method
^3 H-Substance P Binding to Guinea Pig Lung Membranes
(a) Crude lung membrane preparation
Male Hartly strain guinea pigs were stunned and bled. The trachea and lung were removed and homogenized in ice-cold buffer (0.25M sucrose, 50 mM Tris-HCl pH 7.5, 0.1 mM EDTA) by using Polytoron (Kinematica). The homogenate was centrifuged (1000×g, 10 minutes) to remove tissue clumps and the supernatant was centrifuges (35000×g, 20 minutes) to yield pellet. The pellet was resuspended in buffer (5 mM Tris-HCl pH 7.5), homogenized with a teflon homogenizer and centrifuged (35000×g, 20 minutes) to yield pellet which was referred to as crude membrane fractions. The obtained pellet was resuspended in buffer (50 mM Tris-HCl pH 7.5) and stored at -70° C. until use.
(b) ^3 H-Substance P binding to preparation membrane
Frozen crude membrane fractions were thawed and resuspended in Medium 1 (50 mM Tris-HCl pH 7.5, 1 mM MnCl2, 0.02% BSA, 2 μg/ml chymostatin, 4 μg/ml leupeptin, 40 μg/ml bacitracin, 10 μM phosphoramidon). ^3 H-Substance P (1 nM) was incubated with 100 μl of the membrane preparations with or without test compounds in Medium 1 at 25° C. for 30 minutes in a final volume of 500 μl. At the end of the incubation period, 5 ml ice-cold 50 mM Tris-HCl buffer was added to each tube and its content was quickly filtered over a Wahtman GF/B glass filter (pretreated with 0.1% polyethylene imine for 3 hours prior to use) under aspiration. Each of the filters was then washed four times with 5 ml of ice-cold buffer (50 mM Tris-HCl pH 7.5). […] All data presented are specific binding defined as that displaceable by 5 μM unlabeled Substance P.
O=C(/C=C/c1ccc([N+](=O)[O-])cc1)N1CCN(C(=O)c2cc(C(F)(F)F)cc(C(F)(F)F)c2)[C@H](Cc2ccccc2)C1 [Example 17-24, (2R)-2-Benzyl-1-[3,5-bis(trifluoromethyl)benzoyl]-4-(4-nitro-trans-cinnamoyl)piperazine] was tested, and the inhibition at 1 µg/mL was > 90%.
In the case of CN(C)CC(=O)N1CCN(C(=O)c2cc(C(F)(F)F)cc(C(F)(F)F)c2)[C@H](Cc2c[nH]c3ccccc23)C1 [Example 24-4, (2R)-1-[3,5-Bis(trifluoromethyl)benzoyl]-2-(1H-indol-3-yl-methyl)-4-[2-(N,N-dimethylamino)acetyl]-piperazine hydrochloride], the inhibition at 1 µg/mL is reported as > 90%.
For O=C(CCCc1ccccc1)N1CCN(C(=O)c2cc(C(F)(F)F)cc(C(F)(F)F)c2)[C@H](Cc2ccccc2)C1 [Example 17-5, (2R)-2-Benzyl-1-[3,5-bis(trifluoromethyl)benzoyl]-4-(4-phenylbutyryl)piperazine], the inhibition at 1 µg/mL was > 90%.
With O=C(CCc1ccccc1)N1CCN(C(=O)c2cc(C(F)(F)F)cc(C(F)(F)F)c2)[C@H](Cc2ccccc2)C1 [Example 17-4, (2R)-2-Benzyl-1-[3,5-bis(trifluoromethyl)benzoyl]-4-(3-phenylpropionyl)piperazine] the inhibition at 1 µg/mL was > 90%.
With Cc1ccc(C[C@@H]2CNCCN2C(=O)c2cc(C(F)(F)F)cc(C(F)(F)F)c2)cc1C [Example 24-8, (2R)-1-[3,5-Bis(trifluoromethyl)benzoyl]-2-(3,4-dimethylbenzyl) piperazine hydrochloride] the inhibition at 1 µg/mL was > 90%.
CN(C)C(=O)N1CCN(C(=O)c2cc(C(F)(F)F)cc(C(F)(F)F)c2)[C@H](Cc2c[nH]c3ccccc23)C1 [Example 19-1, (2R)-1-[3,5-Bis(trifluoromethyl)benzoyl]-2-(1H-indol-3-yl-methyl) -4-(N,N-dimethylaminocarbonyl)piperazine] was tested, and the inhibition at 1 µg/mL was > 90%.
With O=C(/C=C/c1ccccc1)N1CCN(C(=O)c2cc(C(F)(F)F)cc(C(F)(F)F)c2)[C@H](Cc2c[nH]c3ccccc23)C1 [Example 17-1, (2R)-1-[3,5-Bis(trifluoromethyl)benzoyl]-2-(1H-indol-3-yl-methyl)-4-(trans-cinnamoyl)piperazine] the inhibition at 1 µg/mL was > 90%.
In the case of O=C(c1cc(C(F)(F)F)cc(C(F)(F)F)c1)N1CCNC[C@H]1Cc1ccccc1 [Example 7-7], the inhibition at 1 µg/mL is reported as > 90%.
CC(=O)N1CCN(C(=O)c2cc(C(F)(F)F)cc(C(F)(F)F)c2)[C@H](Cc2ccc(C)c(C)c2)C1 [Example 19-10, (2R)-4-Acetyl-1-[3,5-bis(trifluoromethyl)benzoyl]-2-(3,4-dimethylbenzyl)piperazine] was tested, and the inhibition at 1 µg/mL was > 90%.
In the case of CN(C)C(=O)N1CCN(C(=O)c2cc(C(F)(F)F)cc(C(F)(F)F)c2)[C@H](Cc2ccccc2)C1 [Example 19-4, (2R)-2-Benzyl-1-[3,5-bis(trifluoromethyl)benzoyl]-4-(N,N-dimethylcarbamoyl)piperazine], the inhibition at 1 µg/mL is reported as > 90%.
In the case of O=C(CCCc1c[nH]c2ccccc12)N1CCN(C(=O)c2cc(C(F)(F)F)cc(C(F)(F)F)c2)[C@H](Cc2ccccc2)C1 [Example 17-11, (2R)-2-Benzyl-1-[3,5-bis(trifluoromethyl)benzoyl]-4-[4-(1H-indol-3-yl)butyryl]piperazine], the inhibition at 1 µg/mL is reported as > 90%.
In the case of O=C(/C=C/c1ccc(F)cc1)N1CCN(C(=O)c2cc(C(F)(F)F)cc(C(F)(F)F)c2)[C@H](Cc2c[nH]c3ccccc23)C1 [Example 17-2, (2R)-1-[3,5-Bis(trifluoromethyl)benzoyl]-2-(1H-indol-3-yl-methyl)-4-(4-fluoro-trans-cinnamoyl)piperazine], the inhibition at 1 µg/mL is reported as > 90%.
O=C(CCc1c[nH]c2ccccc12)N1CCN(C(=O)c2cc(C(F)(F)F)cc(C(F)(F)F)c2)[C@H](Cc2ccccc2)C1 [Example 17-10, (2R)-2-Benzyl-1-[3,5-bis(trifluoromethyl)benzoyl]-4-[3-(1H-indol-3-yl)propionyl]piperazine] was tested, and the inhibition at 1 µg/mL was > 90%.

The compounds below were run against T2, h-NK1 receptors (Homo sapiens, UniProt P25103) (assay: ^125 I-BH-Substance P binding to h-NK1 receptors). Conditions: at the concentration of 0.1 μg/ml; CHO cell membranes expressing h-NK1 receptors; read-out: inhibition rate of ^125 I-BH-Substance P binding to h-NK1 receptors.
T2 construct: expressed in transfected cells; host or cells: CHO cells
T2 sequence (P25103 whole entry): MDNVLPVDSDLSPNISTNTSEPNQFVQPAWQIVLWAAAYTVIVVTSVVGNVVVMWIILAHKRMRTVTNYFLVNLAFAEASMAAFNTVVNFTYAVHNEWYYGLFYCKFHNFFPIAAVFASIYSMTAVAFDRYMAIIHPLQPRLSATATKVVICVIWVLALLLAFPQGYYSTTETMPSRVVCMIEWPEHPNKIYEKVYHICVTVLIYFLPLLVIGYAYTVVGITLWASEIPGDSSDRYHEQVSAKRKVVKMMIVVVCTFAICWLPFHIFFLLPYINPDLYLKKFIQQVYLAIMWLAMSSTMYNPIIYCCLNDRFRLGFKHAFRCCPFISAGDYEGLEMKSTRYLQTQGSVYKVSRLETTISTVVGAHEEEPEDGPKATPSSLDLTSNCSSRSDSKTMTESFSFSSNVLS
Experimental: ^125 I-BH-Substance P Binding to h-NK1 Receptors Test Method
^125 I-BH-Substance P Binding to h-NK1 Receptors
(a) Crude CHO cell membrane preparation
CHO cells permanently expressing h-NK1 receptors were harvested and homogenized with a Dounce homogenizer at 4° C. in a buffer (0.25M sucrose, 25 mM Tris-HCl pH 7.4, 10 mM MgCl2, 1 mM EDTA, 5 μg/ml p-APMSF). The homogenate was centrifuged (500×g, 10 minutes), and the pellet was resuspended in the same buffer, homogenized, and centrifuged. The two supernatants were combined and centrifuged (100,000×g, 1 hour). The crude cell membranes thus isolated were resuspended in buffer (25 mM Tris-HCl pH 7.4, 10 mM MgCl2, 1 mM EDTA, 5 μg/ml p-APMSF) and stored at -80° C. until use.
(b) ^125 I-BH-Substance P binding to preparation membrane Cell membranes (6 μg/ml) were incubated with ^125 I-BH-Substance P (0.1 nM) with or without test compounds in 0.25 ml of Medium 2(50 mM Tris-HCl pH 7.4, 5 mM MnCl2, 20 μg/ml chymostatin, 40 μg/ml bacitracin, 4 μg/ml leupeptin, 5 μg/ml p-APMSF, 200 μg/ml BSA) at 22° C. for 90 minutes. At the end of the incubation period, the content was quickly filtered over a Wahtman GF/C glass filter (pretreated with 0.1% polyethylene imine for 3 hours prior to use) under aspiration. Each of the filters was then washed four times with 5 ml of buffer (50 mM Tris-HCl pH 7.4, 5 mM MnCl2). The radioactivity was counted by using Auto Gamma counter (Packerd RIASTAR 5420A). All data presented are specific binding defined as that displaceable by 3 μM unlabeled Substance P.
In the case of CC(C)(C)C(=O)Nc1nc(CN2CCN(C(=O)c3cc(C(F)(F)F)cc(C(F)(F)F)c3)[C@H](Cc3c[nH]c4ccccc34)C2)cs1 [Example 79-4], the inhibition at 0.1 µg/mL is reported as > 90%.
CS(=O)(=O)N1CCN(C(=O)c2cc(C(F)(F)F)cc(C(F)(F)F)c2)[C@H](Cc2c[nH]c3ccccc23)C1 [Example 19-13, (2R)-1-[3,5-Bis(trifluoromethyl)benzoyl]-2-(1H-indol-3-yl-methyl)-4-mesylpiperazine] was tested, and the inhibition at 0.1 µg/mL was > 90%.
With O=C(C1CC1)N1CCN(C(=O)c2cc(C(F)(F)F)cc(C(F)(F)F)c2)[C@H](Cc2c[nH]c3ccccc23)C1 [Example 17-56, (2R)-1-[3,5-Bis(trifluoromethyl)benzoyl]-4-(cyclo-propylcarbonyl)-2-(1H-indol-3-yl-methyl)piperazine] the inhibition at 0.1 µg/mL was > 90%.
With O=C(/C=C/C1CCCCC1)N1CCN(C(=O)c2cc(C(F)(F)F)cc(C(F)(F)F)c2)[C@H](Cc2c[nH]c3ccccc23)C1 [Example 17-50, (2R)-1-[3,5-Bis(trifluoromethyl)benzoyl]-4-[(3-cyclo-hexyl)-trans-acryloyl]-2-(1H-indol-3-yl-methyl)-piperazine] the inhibition at 0.1 µg/mL was > 90%.
In the case of O=C(/C=C/c1cccnc1)N1CCN(C(=O)c2cc(C(F)(F)F)cc(C(F)(F)F)c2)[C@H](Cc2c[nH]c3ccccc23)C1 [Example 17-57, (2R)-1-[3,5-Bis(trifluoromethyl)benzoyl]-2-(1H-indol-3-yl-methyl)-4-[3-(3-pyridyl)-trans-acryloyl]-piperazine], the inhibition at 0.1 µg/mL is reported as > 90%.
With Cc1ccc(C[C@@H]2CN(C(=O)/C=C/C3CCCCC3)CCN2C(=O)c2cc(C(F)(F)F)cc(C(F)(F)F)c2)cc1C [Example 17-60, (2R)-1-[3,5-Bis(trifluoromethyl)benzoyl]-2-(3,4-dimethylbenzyl)-4-(3-cyclohexyl-trans-acryloyl)piperazine] the inhibition at 0.1 µg/mL was > 90%.
For NC(=O)CN1CCN(C(=O)c2cc(C(F)(F)F)cc(C(F)(F)F)c2)[C@H](Cc2c[nH]c3ccccc23)C1 [Example 25-2, (^2 R)-1-[3,5-Bis(trifluoromethyl)benzoyl]-2-(1H-indol-3-yl-methyl)-4-(carbamoylmethyl)piperazine], the inhibition at 0.1 µg/mL was > 90%.
With CC(=O)Nc1nc(/C=C/C(=O)N2CCN(C(=O)c3cc(C(F)(F)F)cc(C(F)(F)F)c3)[C@H](Cc3c[nH]c4ccccc34)C2)cs1 [Example 21-3, (2R)-4-[3-[2-(Acetylamino)thiazol-4-yl]-trans-acryloyl]-1-[3,5-bis(trifluoromethyl)benzoyl]-2-(1H-indol-3-yl-methyl)piperazine] the inhibition at 0.1 µg/mL was > 90%.
With CNC(=O)CN1CCN(C(=O)c2cc(C(F)(F)F)cc(C(F)(F)F)c2)[C@H](Cc2c[nH]c3ccccc23)C1 [Example 26, (2R)-1-[3,5-bis (trifluoromethyl)benzoyl]-2-(1H-indol-3-yl-methyl)-4-(N-methylcarbamoylmethyl)piperazine hydrochloride] the inhibition at 0.1 µg/mL was > 90%.
With CN1CCN(NC(=O)CN2CCN(C(=O)c3cc(C(F)(F)F)cc(C(F)(F)F)c3)[C@H](Cc3c[nH]c4ccccc34)C2)CC1 [Example 77, (2R)-1-[3,5-bis(trifluoromethyl)benzoyl]-2-(1H-indol-3-ylmethyl)-4-[N-(4-methyl-1-piperazinyl)carbamoylmethyl]piperazine] the inhibition at 0.1 µg/mL was > 90%.
For CCCC(=O)Nc1nc(CN2CCN(C(=O)c3cc(C(F)(F)F)cc(C(F)(F)F)c3)[C@H](Cc3c[nH]c4ccccc34)C2)cs1 [Example 79-6], the inhibition at 0.1 µg/mL was > 90%.
